Results as given in patent publication US10538497B2, “Compounds as indoleamine 2,3-dioxygenase inhibitors” (Merck Sharp & Dohme Corp., priority 2015, dated 2020).

Key:
IDO1 [1] = molecular target: T1, IDO1 (Homo sapiens (Human), UniProt P14902); assay: IDO1 Cellular Assay in Frozen HEK293 Cells Transiently Transfected with Human IDO1; type: cell-based; settings: read-out: IDO1 HEK293 Cell Assay, IC50
Experimental: IDO1 Cellular Assay in Frozen HEK293 Cells Transiently Transfected with Human IDO1
HEK293 cells were cultured in complete HEK293 culture medium (90% DMEM, 10% heat-inactivated fetal bovine serum). When reaching sub-confluent, the cells were trypsinized and neutralized with complete medium. […] Flag-IDO1 plasmid was added to the cell suspension at a concentration of 100 μg/mL. The cell-plasmid solutions were transferred to the OC-400 processing assembly (Maxcyte), 400 l/unit and the units were placed in a Maxcyte instrument to carry out flow electroporation for transfection. The cells were then transferred to a sterile 24-well cell culture plate to recover for 20-30 min at 37° C. in an incubator with 5% CO2.
Frozen HEK293/IDO1 and HEK293 WT cells were thawed and transferred into HEK293 assay medium (99% complete HEK293 culture medium, 1% Pen/Strep) with 20 mL medium/vial of cells. The cells were spun down at 250 g in a table top centrifuge for 5 min and suspended in same volume of HEK293 assay medium. […] Sterile L-tryptophan were added to the cells with final concentration of 300 μM.
(§1) HEK293/IDO1 and HEK293 WT cells were dispensed to the respective wells of 384-well assay plates containing the compounds. The plates were incubated for about 28-30 h at a 37° C., 5% CO2 incubator. […] The plates were centrifuged for 1 min at 200×g. The resulting fluorescence was measured in a Spectramax plate reader (Molecular Devices) with a 400 nm excitation filter and a 510 nm emission filter.

IDO1 [2] = molecular target: T1, IDO1; assay: IDO1 Enzyme Assay; settings: read-out: IDO1 Enzyme Assay, IC50; HIS-tagged recombinant IDO1, 40 nM
IDO1 [3] = molecular target: T1, IDO1; assay: IDO1 Cellular Assay in Hela Cells Stimulated with IFNγ; type: cell-based; settings: Hela cells stimulated with IFNγ 100 ng/mL; read-out: IDO1 HELA Cell Assay, IC50
Experimental: IDO1 Cellular Assay in Hela Cells Stimulated with IFNγ
Hela cells were cultured in complete Hela culture medium (90% EMEM, 10% heat-inactivated fetal bovine serum) and expanded to about 1×10^9 cells. The cells were then collected and frozen down at 10×10^6 cells/vial in 1 mL frozen medium (90% complete Hela culture medium, 10% DMSO)
Frozen Hela cells were thawed and transferred into Hela assay medium (99% complete Hela culture medium, 1% Pen/Strep) with 20 mL medium/vial of cells. The cells were spun down at 250 g in a table top centrifuge for 5 min and suspended in same volume of Hela assay medium. The cells were then counted and adjusted to a density of 2×10^5 cells/ml in Hela assay medium. Sterile L-tryptophan were added to the cells with final concentration of 300 uM L-tryptophan. A small aliquot (2 mL/plate) of Hela cells were set aside and were not treated with IFNγ, to serve as the Max-E control. The rest of Hela cells were added with sterile IFNγ (Cat #285-IF, R & D systems) with a final concentration of 100 ng/mL.
as §1, with “Hela cells with” for “HEK293/IDO1”, “without IFNγ” for “HEK293 WT cells”, “48 hours” for “28-30 h”

[4] = HEK293 cells transiently transfected with human IDO1

T1 sequence (P14902 whole entry): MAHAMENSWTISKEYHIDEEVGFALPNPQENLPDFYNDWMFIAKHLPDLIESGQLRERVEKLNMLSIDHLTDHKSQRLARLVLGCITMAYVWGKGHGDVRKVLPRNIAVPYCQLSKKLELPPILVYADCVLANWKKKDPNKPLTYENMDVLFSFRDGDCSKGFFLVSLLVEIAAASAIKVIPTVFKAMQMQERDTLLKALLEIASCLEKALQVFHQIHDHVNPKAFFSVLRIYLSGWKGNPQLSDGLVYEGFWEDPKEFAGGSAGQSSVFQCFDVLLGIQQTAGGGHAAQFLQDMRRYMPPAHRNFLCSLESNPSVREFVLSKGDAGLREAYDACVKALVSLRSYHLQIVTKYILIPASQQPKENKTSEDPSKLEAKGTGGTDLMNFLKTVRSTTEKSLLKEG

SMILES	IC50 (IDO1 [1]; [4]) [nM]	IC50 (IDO1 [2]) [nM]	IC50 (IDO1 [3]) [nM]	IC50 (IDO1 [1]) [nM]
CC(C)(C)OC(=O)NCCSc1nonc1/C(=N/O)Nc1ccc(F)c(Br)c1 [Example 1, Tert-butyl (Z)-(2-((4-(N-(3-bromo-4-fluorophenyl)-N′-hydroxycarbamimidoyl)-1,2,5-oxadiazol-3-yl)thio)ethyl)carbamate]	740	–	–	–
O=C(O)CCSc1nonc1/C(=N/O)Nc1ccc(F)c(Br)c1 [Example 14, (Z)-3-((4-(N-(3-bromo-4-fluorophenyl)-N′-hydroxycarbamimidoyl)-1,2,5-oxadiazol-3-yl)thio)propanoic acid]	> 10000	48.2	–	–
COC(=O)CSc1nonc1/C(=N/O)Nc1ccc(F)c(Br)c1 [Example 22, Methyl (Z)-2-((4-(N-(3-bromo-4-fluorophenyl)-N′-hydroxycarbamimidoyl)-1,2,5-oxadiazol-3-yl)thio)acetate]	1220	35.7	–	–
O=c1c(NCCSc2nonc2/C(=N/O)Nc2ccc(F)c(Br)c2)c(NCC(O)CO)c1=O (stereo not drawn) [Example 75, N-(3-bromo-4-fluorophenyl)-4-{[2-({2-[(2,3-dihydroxypropyl)amino]-3,4-dioxocyclobut-1-en-1-yl}amino)ethyl]sulfanyl}-N′-hydroxy-1,2,5-oxadiazole-3-carboximidamide]	1140	23	–	–
O=P(CCSc1nonc1/C(=N/O)Nc1ccc(F)c(Br)c1)(Oc1ccccc1)Oc1ccccc1 [Example 101, diphenyl [2-({4-[N-(3-bromo-4-fluorophenyl)-N′-hydroxycarbamimidoyl]-1,2,5-oxadiazol-3-yl}sulfanyl)ethyl]phosphonate]	–	764	–	2240
O=P(CCSc1nonc1/C(=N/O)Nc1ccc(F)c(Br)c1)(NCc1ccccc1)NCc1ccccc1 [Example 116, 4-({2-[bis(benzylamino)phosphoryl]ethyl}sulfanyl)-N-(3-bromo-4-fluorophenyl)-N′-hydroxy-1,2,5-oxadiazole-3-carboximidamide]	706	154	–	–
O=P(O)(CCCSc1nonc1/C(=N/O)Nc1ccc(F)c(Br)c1)Oc1ccccc1 [Example 118, phenyl hydrogen [3-({4-[N-(3-bromo-4-fluorophenyl)-N′-hydroxycarbamimidoyl]-1,2,5-oxadiazol-3-yl}sulfanyl)propyl]phosphonate]	–	34.1	–	8150
CN(C)P(=O)(CCSc1nonc1/C(=N/O)Nc1ccc(F)c(Br)c1)N(C)C [Example 139, 4-({2-[bis(dimethylamino)phosphoryl]ethyl}sulfanyl)-N-(3-bromo-4-fluorophenyl)-N′-hydroxy-1,2,5-oxadiazole-3-carboximidamide]	–	117	–	551
CC(=O)N[C@H](C)CSc1nonc1/C(=N/O)Nc1ccc(F)c(C#N)c1 [Example 179, N-[(1R)-2-({4-[N-(3-cyano-4-fluorophenyl)-N′-hydroxycarbamimidoyl]-1,2,5-oxadiazol-3-yl}sulfanyl)-1-methylethyl]acetamide]	686	218	–	–
C[C@H](O)CNC(=O)CSc1nonc1/C(=N/O)Nc1ccc(F)c(Br)c1 [Example 203, (S)-2-((4-(N-(3-bromo-4-fluorophenyl)-N′-hydroxycarbamimidoyl)-1,2,5-oxadiazol-3-yl)thio)-N-(2-hydroxypropyl)acetamide]	–	14.5	11.6	–
C[C@@H](CO)NC(=O)CSc1nonc1/C(=N/O)Nc1ccc(F)c(Br)c1 [Example 205, (S)-2-((4-(N-(3-bromo-4-fluorophenyl)-N′-hydroxycarbamimidoyl)-1,2,5-oxadiazol-3-yl)thio)-N-(1-hydroxypropan-2-yl)acetamide]	–	12.4	11.7	–

Further lines, with some results ahead:

IC50 (IDO1 [1]; [4]) [nM]	IC50 (IDO1 [2]) [nM]	IC50 (IDO1 [3]) [nM]	SMILES	IC50 (IDO1 [1]) [nM]
3700	> 10000	–	O/N=C(\Nc1ccc(F)c(Br)c1)c1nonc1O [Example 4, (Z)—N-(3-Bromo-4-fluorophenyl)-N′,4-dihydroxy-1,2,5-oxadiazole-3-carboximidamide]	–
> 10000	149	–	CC(Sc1nonc1/C(=N/O)Nc1ccc(F)c(Br)c1)C(=O)O (stereo not drawn) [Example 16, (Z)-2-((4-(N-(3-bromo-4-fluorophenyl)-N′-hydroxycarbamimidoyl)-1,2,5-oxadiazol-3-yl)thio)propanoic acid]	–
1790	1030	–	CC(=O)NCCSc1nonc1/C(=N/O)Nc1ccc(F)cc1 [Example 62, N-[2-({4-[N-(4-fluorophenyl)-N′-hydroxycarbamimidoyl]-1,2,5-oxadiazol-3-yl}sulfanyl)ethyl]acetamide]	–
723	27.8	–	O=c1c(NCCSc2nonc2/C(=N/O)Nc2ccc(F)c(Br)c2)c(NCc2ccncc2)c1=O [Example 95, N-(3-bromo-4-fluorophenyl)-4-{[2-({3,4-dioxo-2-[(pyridin-4-ylmethyl)amino]cyclobut-1-en-1-yl}amino)ethyl]sulfanyl}-N′-hydroxy-1,2,5-oxadiazole-3-carboximidamide]	–
838	131	–	CCOC(=O)CNP(=O)(CCCSc1nonc1/C(=N/O)Nc1ccc(F)c(Br)c1)NCC(=O)OCC [Example 108, ethyl 4-[3-({4-[N-(3-bromo-4-fluorophenyl)-N′-hydroxycarbamimidoyl]-1,2,5-oxadiazol-3-yl}sulfanyl)propyl]-7-oxo-8-oxa-3,5-diaza-4-phosphadecan-1-oate 4-oxide]	–
2430	706	–	CC(C)OC(=O)OCOP(=O)(CCCSc1nonc1/C(=N/O)Nc1ccc(F)c(Br)c1)OCOC(=O)OC(C)C [Example 109, bis({[(1-methylethoxy)carbonyl]oxy}methyl) [3-({4-[N-(3-bromo-4-fluorophenyl)-N′-hydroxycarbamimidoyl]-1,2,5-oxadiazol-3-yl}sulfanyl)propyl]phosphonate]	–
–	20.2	12.2	O=C(CSc1nonc1/C(=N/O)Nc1ccc(F)c(Br)c1)NC1(CO)CC1 [Example 202, 2-((4-(N-(3-bromo-4-fluorophenyl)-N′-hydroxycarbamimidoyl)-1,2,5-oxadiazol-3-yl)thio)-N-(1-(hydroxymethyl)cyclopropyl) acetamide]	–
–	82.6	144	CC(C)(Sc1nonc1/C(=N/O)Nc1ccc(F)c(Br)c1)C(=O)NC[C@@H](O)CO [Example 204, (R)-2-((4-(N-(3-bromo-4-fluorophenyl)-N′-hydroxycarbamimidoyl)-1,2,5-oxadiazol-3-yl)thio)-N-(2,3-dihydroxypropyl)-2-methylpropanamide]	–
–	26.6	37.5	CC(C)(NC(=O)CSc1nonc1/C(=N/O)Nc1ccc(F)c(Br)c1)C(O)CO (stereo not drawn) [Example 208, 2-((4-(N-(3-bromo-4-fluorophenyl)-N′-hydroxycarbamimidoyl)-1,2,5-oxadiazol-3-yl)thio)-N-(3,4-dihydroxy-2-methylbutan-2-yl)acetamide]	–
–	52	111	NS(=O)(=O)NCCOc1nonc1/C(=N/O)Nc1ccc(F)c(Br)c1 [Example 212, N-(3-bromo-4-fluorophenyl)-N′-hydroxy-4-(2-(sulfamoylamino)ethoxy)-1,2,5-oxadiazole-3-carboximidamide]	–
–	130	607	NCCOc1nonc1/C(=N/O)Nc1ccc(F)c(Br)c1 [Example 213, 4-(2-aminoethoxy)-N-(3-bromo-4-fluorophenyl)-N′-hydroxy-1,2,5-oxadiazole-3-carboximidamide]	–
–	205	44.4	CS(=O)(=O)NCCOc1nonc1/C(=N/O)Nc1ccc(F)c(Br)c1 [Example 214, N-(3-bromo-4-fluorophenyl)-N′-hydroxy-4-(2-(methylsulfonamido)ethoxy)-1,2,5-oxadiazole-3-carboximidamide]	–
